From patent EP0498290B1, “Pyridobenzodiazepines, dipyrido [3,2-b:2',3'-e] [1,4]diazepines and their use in the prevention or treatment of HIV infection” (BOEHRINGER INGELHEIM PHARMACEUTICALS INC., priority 1991, dated 1992) come the findings set out here.

Values after ≈ are worked out from the molar mass of the structure shown. Like-named read-outs stand apart in the source and are kept apart here.

In data set [1] the target is T1, HIV-1 RT (Human immunodeficiency virus type 1 group M subtype B, UniProt P03367).
T1 construct: Reverse transcriptase enzyme from the LAV strain of Human Immunodeficiency Virus (HIV-1) (1) was isolated from the bacterial strain JM109; made in house; host or cells: E. coli JM109, clone pBRTprt1+ in vector pIBI21 (lac promoter, IPTG induction)
In words: Reverse Transcriptase (RT) Assay: RNA-dependent DNA polymerase activity, poly r(C)/oligo d(G) template, 3H-dGTP. In kind it is biochemical. The source says:
Utilizing the Reverse Transcriptase (RT) Assay described below, compounds can be tested for their ability to inhibit the RNA-dependent DNA polymerase activity of HIV-1 RT. Certain specific compounds described in the Examples which appear below, were so tested.
Among the enzymes for which Human Immunodeficiency Virus (HIV-1) encodes is a reverse transcriptase (1), so-named because it transcribes a DNA copy from an RNA template. This activity can be quantitatively measured in a cell-free enzyme assay, which has been previously described (2), and is based upon the observation that reverse transcriptase is able to use a synthetic template [poly r(C) primed with oligo d(G)] to transcribe a radio-labelled, acid-precipitable DNA strand utilizing ^3H-dGTP as a substrate.
Reverse transcriptase enzyme from the LAV strain of Human Immunodeficiency Virus (HIV-1) (1) was isolated from the bacterial strain JM109 (3) expressing the DNA clone pBRTprt1+ (2) which is under the control of the lac promotor in the expression vector pIBI21 (4). An overnight culture grown in 2XYT medium (37°C, 225 rpm) (5) supplemented with 100 µg/ml ampicillin for positive selection is inoculated at a 1:40 dilution into M9 medium supplemented with 10µg/ml thiamine, 0.5% casamino acids, and 50 µg/ml ampicillin (5). The culture is incubated (37°C, 225 rpm) until it reaches an OD540 of 0.3-0.4. At that time the repressor inhibitor IPTG (isopropyl β-D-thiogalactopyranoside) is added to 0.5mM, and the mixture is incubated for 2 additional hours. Bacteria are pelleted, resuspended in a 50mM Tris, 0.6mM EDTA, 0.375M NaCl buffer and digested by the addition of lysozyme (1mg/ml) for 30 minutes on ice. The cells are lysed by the addition of 0.2% NP-40 and brought to 1M NaCl.
After removal of the insoluble debris by centrifugation, the protein is precipitated by the addition of 3 volumes of saturated aqueous ammonium sulfate. The enzyme is pelleted, resuspended in RT buffer (50mM Tris pH 7.5, 1mM EDTA, 5mM DTT, 0.1% NP-40, 0.1M NaCl, and 50% glycerol), and stored at -70°C for further use.
b) Composition of 2X concentrated stock reaction mixture used in testing of compounds 1 to 15
Composition of 2X concentrated stock reaction mixture used in testing compounds 16 and 17
The 2X concentrated stock reaction mixture is aliquoted and stored at - 20°C. The mixture is stable and thawed for use in each assay. This enzyme assay has been adapted to a 96 well microtiter plate system, and has been previously described (6). Tris buffer (50 mM, pH 7.4), vehicle (solvent diluted to match the compound dilution), or compounds in vehicle are dispensed into 96-well microtiter plates (10µl/well; 3 wells/compound). The HIV-1 RT enzyme is thawed, diluted in 50mM Tris pH 7.8 (50mM Tris pH 7.4 in the case of compounds 16 and 17) so that fifteen µl of diluted enzyme contain 0.001 Unit (one unit is that amount of enzyme to transform 1 micromole of substrate per minute at 25°C), and fifteen µl are dispensed per well. Twenty µl of 0.12-0.5M EDTA are added to the first three wells of the microtiter plate. EDTA chelates the Mg^++ present and prevents reverse transcription. This group serves as background polymerization which is subtracted from all other groups. Twenty-five ul of the 2X reaction mixture are added to all wells and the assay is allowed to incubate at room temperature for 60 minutes. The assay is terminated by precipitating the DNA in each well with 50µl of 10% trichloracetic acid (TCA) (10% w/v) in sodium pyrophosphate (1% w/v). The microtiter plate is incubated for 15 minutes at 4°C and the precipitate is fixed onto #30 glass fiber paper (Schleicher & Schuell) using a Skatron semi-automatic harvester. The filters are then washed with additional TCA (5%) containing sodium pyrophosphate (1%), rinsed with aqueous ethanol (70%), dried, and transferred to scintillation vials (6). […]

Data set [2] concerns HTLV-IIIB strain of HIV-1. In words: Human T-Cell Culture Assay (syncytia formation in c8166 cells). In kind it is cell-based. As to conditions: Human immunodeficiency virus 1, IIIB, 96 h, syncytia read four days after virus challenge. On the procedure: In order to confirm that compounds which are active in the RT Assay also have the ability to inhibit HIV replication in a living system, compounds according to the invention were also tested in the human T-Cell Culture Assay described below.
Assay Theory: Formation of syncytia is a feature of in vitro cultures of CD4+ T-cells infected with HIV-1. In this assay, T-cells are treated with a putative replication inhibiting compound and then infected with HIV-1. After incubation, the culture is checked for the formation of syncytia. The absence or reduction in the number of syncytia is used as a measure of the test compound's ability to inhibit HIV replication.
Assay Method: The target cells, designated c8166, are a subclone of human lymphoma cells of T-cell origin and are established at an initial density of 5x10^4 per 100 ul in RPMI 1640 (+ 10% fetal bovine serum) culture medium in 96 well flat bottom plates. A selected amount of test compound, dissolved in DMSO, is included. After 24 hours, 50-100 TCID50's (the dose that results in induced effect in 50% of test cultures) of the HTLV-IIIB strain of HIV-1 (2) are inoculated into each culture. Control cultures receive compound or virus only. Four days after virus challenge, cultures are visually examined for the frequency and distribution of virus-induced giant cell syncytia. The percent inhibition by the test compound is determined by comparison with control values. Confirmation of the presence or absence of virus replication is accomplished by harvesting the cell free culture fluids from all experimental groups to determine the presence or absence of infectious progeny through the induction of syncytia formation in secondary human T-cell cultures after 3 days.

A short description of data set [3]: in vitro. In kind it is cell-based. Particulars: human, c8166 cells. On the procedure:
In order to roughly assess the cytotoxicity of the compounds provided by the invention, several such compounds were tested in the MTT Cellular Cytotoxicity Assay described below. Compounds having a relatively high EC50 are preferred.
The MTT [3-(4,5-dimethylthiazol-2-yl)-2,5 diphenyl tetrazolium bromide) assay is based on cleavage of tetrazolium bromide by metabolically active cells, resulting in a highly quantitative blue color. This assay has been previously described (1) but has been optimized for the purposes of the testing reported herein.
The c8166 cell line (2), an established human lymphoma suspension cell line grown in RPMI 1640 supplemented with 10% fetal bovine serum, is used as the target cell line in the assay. Cells (100µl) are plated in microtest plate wells at a concentration of 10^5 cells per ml in the presence of varying concentrations of inhibitor. The cells are incubated at 37°C in a humidified CO2 incubator. Five days later, 20µl of MTT (5mg/ml in RPMI 1640, sonicated, 0.2 micron filtered, and stored at 4°C) is added to each well. After 4 hours additional incubation at 37°C, 60µl of Triton-X is added to each well and thoroughly mixed to aid the solubilization of the crystals. Absolute ethanol (5µl) is added to each well and the resulting mixture is incubated for 30 minutes at 60°C and immediately read on a plate reader (Dynatech) at a wavelength of 570nm. […]

The mark [4] stands for this setting: 10 µg/ml, reaction mixture for compounds 1 to 15 (Tris pH 7.8, KCl, human serum albumin, 6µM 3H-dGTP in 2X mix), read-out: RT Assay % inhibition @ 10 µg/ml.
The mark [5] stands for this setting: pH 7.4, read-out: RT Assay % inhibition @ 10 µg/ml.

As for “2.4-Dimethyl-11-ethyl-6-pyrrolidino-11H-dipyrido[3,2-b:2',3'-e][1,4]diazepine [Example 10]”, in data set [1] (10 µg/ml, reaction mixture for compounds 1 to 15 (Tris pH 7.8, KCl, human serum albumin, 6µM 3H-dGTP in 2X mix)), the “RT Assay % inhibition @ 10 µg/ml” value came to 91%. `Cc1ccnc2c1N=C(Cl)c1cccnc1N2C1CC1` [Example 1, 6-Chloro-11-cyclopropyl-4-methyl-11H-dipyrido[3,2-b:2',3'-e][1,4]diazepine]: the inhibition at 3 µg/mL in data set [2] is greater than 90%. Also, the CC50 (usually the concentration that lowers cell viability or growth by half) at 120 h in data set [3] is greater than 5 µg/mL. The matching figures for `Cc1ccnc2c1N=C(C#N)c1cccnc1N2C1CC1` [Example 2, 6-Cyano-11-cyclopropyl-4-methyl-11H-dipyrido[3,2-b:2',3'-e][1,4]diazepine]: greater than 50% and 28 µg/mL (≈ 102 µM).

`CCN1c2ncccc2C(C#N)=Nc2c(C)cc(C)nc21` [Example 3, 6-Cyano-2,4-dimethyl-11-ethyl-11H-dipyrido[3,2-b:2',3'-e][1,4]diazepine]: the inhibition at 3 µg/mL in data set [2] is greater than 50%.

As for `CCOC(=O)CSC1=Nc2c(C)ccnc2N(C2CC2)c2ncccc21` [Example 5], in data set [1] (setting [4]), the inhibition at 10 µg/mL was 98%. Same read-out and setting: the result for `Cc1ccnc2c1N=C(n1ccnc1)c1cccnc1N2C1CC1` [Example 9] reads 97%. On the same count and under the same terms, the figure for `Cc1ccnc2c1N=C(S(C)(=O)=O)c1cccnc1N2C1CC1` [Example 14, 11-Cyclopropyl-4-methyl-6-methylsulfonyl-dipyrido[3,2-b:2',3'-e][1,4]diazepine] is 100%. Consider `CCOC1=Nc2c(C)cccc2Nc2ncccc21` [Example 16, 5-Ethoxy-7-methyl-11H-pyridol[2,3-b][1,5]benzodiazepine], for which the inhibition at 10 µg/mL in data set [1] (setting [5]) is 59%.

`COC1=Nc2ccccc2N(C)c2ncccc21` [Example 17, 5-Methoxy-11-methyl-11H-pyrido[2,3-b][1,5]benzodiazepine]: in data set [1] (setting [5]), the inhibition at 10 µg/mL came out at 82%.
